Laboratory results taken from patent US10610522B2, “Methods for retreating irritable bowel syndrome (IBS)” (Salix Pharmaceuticals, Inc., priority 2014, dated 2020).

Test system: C. difficile infection (CDI)
Assay: Double-blind non-inferiority trial rifaximin 400 mg TID vs vancomycin 125 mg QID, 10 days, C. difficile infection
Type: in vivo, human
Description: Criteria for entry into the trial were: • Age >=18 years old; • Had acute diarrhea at screening defined as >=3 unformed stools in the last 24 hours and at least one sign of enteric infection (fever, nausea, lose of appetite, vomiting, severe abdominal pain/discomfort); and • a positive C. diff stool toxin assay Endpoint:
The primary efficacy endpoint of the study was defined as the proportion of subjects achieving clinical success. Specifically, clinical success was defined as the absence of severe abdominal pain at Test of Cure (TOC), absence of fever (<38° C.) at TOC, and <3 unformed stools for two consecutive days at TOC.
Clinical success was defined as the: Absence of severe abdominal pain at TOC, absence of fever (<38° C.) at TOC, and <3 unformed stools for two consecutive days at TOC. Test of cure defined as Day 14+/−1 day.
Recurrence was defined to be a diarrhea and a positive C. diff stool toxin assay that occurred after initial clinical success.
Global cure of diarrhea was defined as subjects who were cured of diarrhea at TOC without recurrence at follow up.
Subjects who completed the study without achieving clinical success were censored at Day 14

[1] = Rifaximin N = 117, Vancomycin N = 115
[2] = adjusting for concomitant medication usage, Rifaximin N = 109, Vancomycin N = 112
[3] = adjusting for concomitant medication usage, Rifaximin N = 117, Vancomycin N = 115
[4] = after initial clinical success, Rifaximin N = 67, Vancomycin N = 73
[5] = all subjects, Rifaximin N = 117, Vancomycin N = 115
[6] = at TOC, Rifaximin N = 108, Vancomycin N = 111
[7] = at TOC, Rifaximin N = 117, Vancomycin N = 115
[8] = cured at TOC without recurrence at follow up, Rifaximin N = 117, Vancomycin N = 115
[9] = subgroup Age <65, at TOC, Rifaximin N = 69, Vancomycin N = 62
[10] = subgroup Age >=65, at TOC, Rifaximin N = 39, Vancomycin N = 49
[11] = subgroup Female, at TOC, Rifaximin N = 68, Vancomycin N = 64
[12] = subgroup Male, at TOC, Rifaximin N = 40, Vancomycin N = 47

## CN[C@H](CC(C)C)C(=O)N[C@H]1C(=O)N[C@@H](CC(N)=O)C(=O)N[C@H]2C(=O)N[C@H]3C(=O)N[C@H](C(=O)N[C@H](C(=O)O)c4cc(O)cc(O)c4-c4cc3ccc4O)[C@H](O)c3ccc(c(Cl)c3)Oc3cc2cc(c3O[C@@H]2O[C@H](CO)[C@@H](O)[C@H](O)[C@H]2O[C@H]2C[C@](C)(N)[C@H](O)[C@H](C)O2)Oc2ccc(cc2Cl)[C@H]1O [Vancomycin]
[1]
  Continuing Illness No: % of subjects: 86%
  Continuing Illness No: number of subjects: 99
  Continuing Illness Yes: % of subjects: 14%
  Continuing Illness Yes: number of subjects: 16
  Global Cure of Diarrhea No: % of subjects: 26%
  Global Cure of Diarrhea No: number of subjects: 30
[2]
  Diarrhea No: % of subjects: 73%
  Diarrhea No: number of subjects: 82
  Diarrhea Yes: % of subjects: 27%
  Diarrhea Yes: number of subjects: 30
[3]
  Clinical Success No: % of subjects: 40%
  Clinical Success No: number of subjects: 46
  Clinical Success Yes: % of subjects: 60%
  Clinical Success Yes: number of subjects: 69
[4]
  No Recurrence of CDI: % of subjects: 86%
  No Recurrence of CDI: number of subjects: 63
  Recurrence of CDI: % of subjects: 14%
  Recurrence of CDI: number of subjects: 10
[5]
  Recurrence No: % of subjects: 93%
  Recurrence No: number of subjects: 105
  Recurrence Yes: % of subjects: 7%
  Recurrence Yes: number of subjects: 10
[6]
  Diarrhea No: % of subjects: 81%
  Diarrhea No: number of subjects: 90
  Diarrhea Yes: % of subjects: 19%
  Diarrhea Yes: number of subjects: 21
  Fever No: % of subjects: 98%
  Fever No: number of subjects: 109
  Fever Yes: % of subjects: 2 (2%)
  Fever Yes: number of subjects: 2 (2%)
  Severe Abdominal Pain/Discomfort No: % of subjects: 86%
  Severe Abdominal Pain/Discomfort No: number of subjects: 95
  Severe Abdominal Pain/Discomfort Yes: % of subjects: 14%
  Severe Abdominal Pain/Discomfort Yes: number of subjects: 16
[7]
  Clinical Success No: % of subjects: 37%
  Clinical Success No: number of subjects: 42
  Clinical Success Yes: % of subjects: 64%
  Clinical Success Yes: number of subjects: 73
[8]
  Global Cure of Diarrhea Yes: % of subjects: 74%
  Global Cure of Diarrhea Yes: number of subjects: 85
During the treatment period, Rifaximin N = 117, Vancomycin N = 115
  Adjusted mean number of unformed stools-ANOVA: 1.90
[9]
  Diarrhea: % of subjects: 19%
  Diarrhea: number of subjects: 12
  No Diarrhea: % of subjects: 81%
  No Diarrhea: number of subjects: 50
[10]
  Diarrhea: % of subjects: 18%
  Diarrhea: number of subjects: 9
  No Diarrhea: % of subjects: 82%
  No Diarrhea: number of subjects: 40
[11]
  Diarrhea: % of subjects: 17%
  Diarrhea: number of subjects: 11
  No Diarrhea: % of subjects: 83%
  No Diarrhea: number of subjects: 53
[12]
  Diarrhea: % of subjects: 21%
  Diarrhea: number of subjects: 10
  No Diarrhea: % of subjects: 79%
  No Diarrhea: number of subjects: 37
